Results published in patent US7772241B2, “Variolin derivatives and their use as antitumor agents” (Pharma Mar S.A., priority 2001, dated 2010).

Tests used:
DU-145 = assay: Inhibition of cells growth by colorimetric (SRB) assay, DU-145; conditions: SRB assay, 48 hours exposure
How it was run: (§1)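 Read-out is sulforhodamine B protein stain (OD 490 nm) after cold TCA fixation, following 48 h continuous exposure to samples spanning 10 to 10^−8 μg/ml.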

A-549 = assay: Inhibition of cells growth by colorimetric (SRB) assay, A-549; conditions: SRB assay, 48 hours exposure
How it was run: as §1

[1] = Inhibition of cells growth by colorimetric (SRB) assay, HMEC1; conditions: human, HMEC1 cells, LC50 H-MEC-1, SRB assay, 48 hours exposure
HMEC1 = assay: as above
SK-MEL-28 = assay: Inhibition of cells growth by colorimetric (SRB) assay, SK-MEL-28; conditions: SRB assay, 48 hours exposure
How it was run: as §1

LNCaP = assay: Inhibition of cells growth by colorimetric (SRB) assay, LNCaP; conditions: SRB assay, 48 hours exposure
How it was run: as §1

IGROV-ET = assay: Inhibition of cells growth by colorimetric (SRB) assay, IGROV-ET; conditions: SRB assay, 48 hours exposure
How it was run: as §1

LoVo-Dox = assay: Inhibition of cells growth by colorimetric (SRB) assay, LoVo-Dox; conditions: SRB assay, 48 hours exposure
How it was run: as §1

IGROV-1 = assay: Inhibition of cells growth by colorimetric (SRB) assay, IGROV-1; conditions: SRB assay, 48 hours exposure
How it was run: as §1

SK-OV-3 = assay: Inhibition of cells growth by colorimetric (SRB) assay, SK-OV-3; conditions: SRB assay, 48 hours exposure
How it was run: as §1

PANC-1 = assay: Inhibition of cells growth by colorimetric (SRB) assay, PANC-1; conditions: SRB assay, 48 hours exposure
How it was run: as §1

HT-29 = assay: Inhibition of cells growth by colorimetric (SRB) assay, HT-29; conditions: SRB assay, 48 hours exposure
How it was run: as §1

K-562 = assay: Inhibition of cells growth by colorimetric (SRB) assay, K-562; conditions: SRB assay, 48 hours exposure
How it was run: as §1

LoVo = assay: Inhibition of cells growth by colorimetric (SRB) assay, LoVo; conditions: SRB assay, 48 hours exposure
How it was run: as §1

SK-BR-3 = assay: Inhibition of cells growth by colorimetric (SRB) assay, SK-BR-3; conditions: SRB assay, 48 hours exposure
How it was run: as §1

Question: What does the source list for `Cl.Nc1nccc2c(-c3ccncn3)c3c(O)ccnc3n12` [Compound 101]?
Answer: TGI DU-145 (DU-145): 1.80E−06; GI50 (DU-145; read-out: GI50 DU-145): 0.118 µM; CC50 (DU-145; read-out: LC50 DU-145): ≥ 30.3 µM; TGI A-549 (A-549): 1.09E−05; GI50 (A-549; read-out: GI50 A-549): 2.39 µM; CC50 (A-549; read-out: LC50 A-549): ≥ 33.9 µM; CC50 at 48 h [1]: 0.0444 µM; GI50 (HMEC1; Homo sapiens, HMEC-1, 48 h, read-out: GI50 H-MEC-1, SRB assay, 48 hours exposure): 0.00677 µM; TGI H-MEC-1 (HMEC1; SRB assay, 48 hours exposure, in M (unit assumed)): 1.57E−08; TGI MEL-28 (SK-MEL-28): 1.07E−05; GI50 (SK-MEL-28; read-out: GI50 MEL-28): 5.22 µM; CC50 (SK-MEL-28; read-out: LC50 MEL-28): 21.9 µM; TGI LN-caP (LNCaP): 1.32E−07; GI50 (LNCaP; read-out: GI50 LN-caP): 0.0224 µM; CC50 (LNCaP; read-out: LC50 LN-caP): 4.74 µM; TGI IGROV-ET (IGROV-ET): 2.08E−05; GI50 (IGROV-ET; read-out: GI50 IGROV-ET): 6.6 µM; CC50 (IGROV-ET; read-out: LC50 IGROV-ET): ≥ 33.9 µM; TGI LOVO-DOX (LoVo-Dox): 1.59E−05; GI50 (LoVo-Dox; read-out: GI50 LOVO-DOX): 2.35 µM; CC50 (LoVo-Dox; read-out: LC50 LOVO-DOX): ≥ 33.9 µM; TGI IGROV (IGROV-1): 1.06E−05; GI50 (IGROV-1; read-out: GI50 IGROV): 3.79 µM; CC50 (IGROV-1; read-out: LC50 IGROV): 29.6 µM; TGI SKOV-3 (SK-OV-3): 1.41E−05; GI50 (SK-OV-3; read-out: GI50 SKOV-3): 4.44 µM; CC50 (SK-OV-3; read-out: LC50 SKOV-3): ≥ 33.9 µM; TGI PANC-1 (PANC-1): 4.88E−06; GI50 (PANC-1; read-out: GI50 PANC-1): 0.149 µM; CC50 (PANC-1; read-out: LC50 PANC-1): ≥ 33.9 µM; TGI HT-29 (HT-29): 2.35E−05; GI50 (HT-29; read-out: GI50 HT-29): 8.87 µM; CC50 (HT-29; read-out: LC50 HT-29): ≥ 33.9 µM; TGI K-562 (K-562): 1.79E−05; GI50 (K-562; read-out: GI50 K-562): 5.55 µM; CC50 (K-562; read-out: LC50 K-562): ≥ 33.9 µM; TGI LOVO (LoVo): 1.41E−05; GI50 (LoVo; read-out: GI50 LOVO): 3.52 µM; CC50 (LoVo; read-out: LC50 LOVO): ≥ 33.9 µM; TGI SK-BR-3 (SK-BR-3): 8.77E−07; GI50 (SK-BR-3; read-out: GI50 SK-BR-3): 0.128 µM; CC50 (SK-BR-3; read-out: LC50 SK-BR-3): 10.2 µM
